# Key:
# Format in all cases: cell-based
# epidermis and dermis = assay: Control of cell viability of skin explants (Masson's trichrome staining, Goldner variant); conditions: for Cell viability Dermis / Cell viability Epidermis: explants
# Protocol: The explants were distributed into 3 batches as follows:
# (§1) On day 0 (D0), D1, D4, D5 and D7, the product P was topically applied on the basis of 2 mg/cm^2 (± 2µL per explant) and spread using a small spatula. […] The culture medium was half renewed (1 ml per well) on D1, D4, D5 and D7.
# (§2) On day 0 (D0), the 3 explants from the batch T0 were collected and cut into 2 parts: half was fixed in formalin buffered solution and half was frozen at -80°C. On D5 and D9, the 3 explants of each batch were collected and processed in the same way than on day 0; the fourth explants were kept frozen at -80°C. The culture media of all explants were collected on D1, D4, D5, D7 (1 ml per explant) and on day 9 (2 ml per explant) and stored at -20°C for cortisol dosage.
# (§3) After fixation for 24 hours in buffered formalin solution, the samples were dehydrated and impregnated in paraffin using a Leica PEARL dehydration automat. The samples were then paraffin-embedded using a Leica EG 1160 embedding station. 5-µm-thick sections of formol fixed paraffin-embedded (FFPE) skin sections were realized using a Leica RM 2125 Minot-type microtome, and the sections were then mounted on Superfrost® Plus glass slides. The frozen samples were cut into 7-µm-thick sections using a Leica CM 3050 cryostat. Sections were then mounted on Superfrost® plus silanized glass slides. Microscopical observations were realized using a Leica DMLB, a BX43 or BX63 Olympus microscope. Pictures were digitized with an Olympus DP72 or DP74 camera and the cellSens dimension data storing software (Olympus).
# The observation of the cell viability of the epidermis and dermis was performed after staining of formalin-fixed paraffin- embedded (FFPE) skin sections according to Masson's trichrome, Goldner variant.
# Cortisol = Cortisol competitive ELISA on explant culture media; conditions: for Cortisol (ng/mL), Mean: released in BEM culture medium
# Protocol: as §1, §2
# Cortisol competitive assay was performed with human Cortisol ELISA kit (Enzo life sciences, ref. 25-0358-ADI-901-071). According to provider's guidelines, the culture media were diluted at 1/200 and the Cortisol standards were incubated for 2 hours at room temperature with a monoclonal antibody specific to Cortisol in a sample or an alkaline phosphatase molecule which has Cortisol covalently attached to it. […] The intensity of the bound yellow color is inversely proportional to the concentration of Cortisol in either standards or samples. Absorbance at 405 nm was measured using the M200Pro Tecan microplate reader and Magellan7 software. Cortisol assay was performed on culture BEM media on day 5 (pool of D1, D4, D5 culture media) and day 9 (pool of D7 and D9 culture media). The concentration of cortisol was expressed in ng/ml.
# Beta-endorphin = Beta-endorphin immunostaining of explant skin sections with image analysis; conditions: for Beta-endorphin in the epidermis (% surface), Average: image analysis
# Protocol: as §1, §2, §3
# The immunostaining was assessed by microscopical observation and image analysis.
# The images analyses were performed on all the images of each batch, according to the following method using cellSens software. The process is illustrated in Figure 2. For each batch of explants, the percentage of the region of interest covered by the staining (stained surface percentage) is determined by image analysis according to the previously described process.
# The stained surface percentage (Surf%) for each treatment was compared to the untreated condition => P vs T.
# [1] = topical 2 mg/cm^2, day 5 (batch PJ5)
# [2] = topical 2 mg/cm^2, day 9 (batch PJ9)
smiles,measurement,setting,value
C=C(C)[C@@H]1CCC(C)=C[C@H]1c1c(O)cc(CCCCC)cc1O [Cannabidiol],Effect of product application on cell viability,"epidermis and dermis; D5, compared to the batch TJ5",no modification
same,Effect of product application on cell viability,"epidermis and dermis; D9, compared to the batch TJ9",no modification
same,Cell viability Dermis,epidermis and dermis; [1],good
same,Cell viability Epidermis,epidermis and dermis; [1],good
same,Cell viability Dermis,epidermis and dermis; [2],good
same,Cell viability Epidermis,epidermis and dermis; [2],fairly good
same,decrease of cortisol,"Cortisol; D5, compared to the batch TJ5",24%
same,decrease of cortisol,"Cortisol; D9, compared to the batch TJ9",18%
same,"Cortisol (ng/mL), Mean","Cortisol; day 5 (pool of D1, D4, D5), batch PJ5",246.5 ng/mL
same,"Cortisol (ng/mL), Mean","Cortisol; day 9 (pool of D7 and D9), batch PJ9",255.1 ng/mL
same,Effect of product application on beta-endorphin expression (microscopical observation of staining in the epidermis),"Beta-endorphin; D5, compared to the batch TJ5",slight increase
same,increase of beta-endorphin expression,"Beta-endorphin; D5, compared to the batch TJ5, image analysis",24%
same,Effect of product application on beta-endorphin expression (microscopical observation of staining in the epidermis),"Beta-endorphin; D9, compared to the batch TJ9",slight increase
same,increase of beta-endorphin expression,"Beta-endorphin; D9, compared to the batch TJ9, image analysis",30%
same,"Beta-endorphin in the epidermis (% surface), Average",Beta-endorphin; day 5 (batch PJ5),33.1 % surface
same,"Beta-endorphin in the epidermis (% surface), Average",Beta-endorphin; day 9 (batch PJ9),12.5 % surface
